{"source": "patent US20120164104A1", "about": "“Composition and Methods of Treating Viral Infections and Viral Induced Tumors” (Chimerix, Inc., priority 2009, published 2012)", "test_system": "JCV Mad-4", "assay": "Extracellular JCV load in JCV-infected COS-7 cells (qPCR)", "assay_type": "cell-based", "description": "COS-7 supernatants were harvested 5 […] post start of treatment with indicated CMX001 concentrations. JCV load was measured by qPCR and input virus subtracted. DNA load in untreated cells (5.04×10 E+9 geq/ml) was set as 100%. Replication of JCV is shown as percentage of untreated cells to determine the IC-50 and IC-90. […] Supernatants from CMX001-treated and untreated JCV-infected COS-7 cells were harvested at indicated timepoints after infection and JCV load measured by qPCR. Data are presented as JCV load in log geq/ml. COS-7 or astrocyte cells were infected at a confluence of 60-70% with JCV(Mad-4) at an estimated TCID50 of 0.2. After 2 h incubation at 37° C., supernatants were replaced with fresh medium without or with increasing concentration CMX001. […] JCV loads were quantified after DNA extraction from 100 ul cell culture supernatants and the Corbett X-tractor Gene and the Corbett VX reagents (Qiagen, Hombrechtikon, Switzerland). The real-time PCR protocol for detection of JCV DNA samples targets the JCV large T coding sequence and has been described elsewhere (5). To investigate the effect of CMX001 on JCV progeny, increasing concentrations of CMX001 were added at 2 h p.i. and supernatants harvested at 5 d.p.i. It was observed that CMX001 reduced the extracellular JCV load in a concentration dependent manner (FIG. 12)."}
{"compound": "CCCCCCCCCCCCCCCCOCCCOP(=O)(O)CO[C@H](CO)Cn1ccc(N)nc1=O", "note": "[CMX001]", "values": [{"measurement": "change in the JCV load over 7 days", "setting": "5 nM CMX001, COS-7", "value": "less than 1 log"}, {"measurement": "IC50", "setting": "120 h, COS-7, day 5 p.i., viral input subtracted, read-out: inhibitory concentration IC-50 (extracellular JCV load)", "value": 150, "unit": "nM"}, {"measurement": "IC90", "setting": "120 h, COS-7, day 5 p.i., viral input subtracted, read-out: inhibitory concentration IC-90 (extracellular JCV load)", "value": 600, "unit": "nM"}, {"measurement": "reduction of JCV viral load", "setting": "CMX001 0.15 μM, day 5 p.i.", "value": "> 50", "unit": "%"}, {"measurement": "IC-90 concentration lower than concentrations reported for CDV inhibition of JCV", "setting": "CMX001 0.6 μM, COS-7", "value": "2 orders of magnitude"}, {"measurement": "viral load at 7 d.p.i. relative to untreated cells at 3 d.p.i.", "setting": "CMX001 5 uM, COS-7", "value": 91, "unit": "%"}]}
